# Values quoted from earlier work in US20040053948A1, “Compounds, compositions and methods” (Cytokinetics, Inc., priority 2002, published 2004).
# System: A549 cells
# Conditions: data provided by National Cancer Institute, Developmental Therapeutic Program
row,SMILES,GI50
1,COc1cccc2c1C(=O)c1c(O)c3c(c(O)c1C2=O)C[C@@](O)(C(=O)CO)C[C@@H]3O[C@H]1C[C@H](N)[C@H](O)[C@H](C)O1 [doxorubicin],63 nM
2,CC(=O)O[C@H]1C(=O)[C@@]2(C)[C@H]([C@H](OC(=O)c3ccccc3)[C@]3(O)C[C@H](OC(=O)[C@H](O)[C@@H](NC(=O)c4ccccc4)c4ccccc4)C(C)=C1C3(C)C)[C@]1(OC(C)=O)CO[C@@H]1C[C@@H]2O [paclitaxel],4 nM
3,O=c1[nH]cc(F)c(=O)[nH]1 [5-fluorouracil],1000 nM
4,NC(=O)NO [hydroxyurea],500000 nM
